Measurements published in patent publication US20110182916A1, “Use of Agonists of Integrin Alpha 5 for Inducing the Osteogenic Differentiation of Mesenchymal Stem Cells” (priority 2008, published 2011).
Where no end group is shown, it is not given here.

Legend:
[1] = test system: hMSCs; assay: Osteoblast marker mRNA (Runx2, ALP, Col1A1) by quantitative RT-PCR; format: cell-based; conditions: CRRETAWAC 100 μg/ml, 24 h, human MSCs
Protocol: The expression of mRNA markers of the osteoblast lineage (Runx2, ALP, type 1 collagen) was evaluated by quantitative RT-PCR. Total RNAs were isolated using Trizol reagent (Laboratoires Eurobio, France) according to the manufacturer's instructions. Three μg of total RNA from each sample were reverse transcribed using MMLV reverse transcriptase and oligodT primers, at 37° C. for 90 min. The relative mRNA levels were evaluated by quantitative PCR using LightCycler Instrument (Roche Applied Science, Indianapolis Ind., USA) and SYBR Green PCR kit (ABGen, Courtabceuf, France). Triplicate reactions were carried out for each sample. Signal was normalized to 18S as internal control.

[2] = test system: clonal F/STRO1+A cells; assay: ALP activity by staining in clonal cells; format: cell-based, human; conditions: coating with 100 μg/ml CRRETAWAC
Excerpt: F/STRO1^+A cells were derived from human fetal bone marrow stroma, selected for Stro1 antigen expression, immortalized using the large T SV40 and subsequently subcloned (OYAJOBI et al., J Bone Miner Res, 14, 351-61, 1999). This clonal human bone marrow stromal cell line express mRNA markers or protein of the osteoblast lineage (Runx2, OC, ALP, type 1 collagen), of the chondrocyte lineage (aggrecan, types 2, 9 and 10 collagen), and of the adipocyte lineage (PPARgamma2, C/EBPalpha, aP2, G3PDH, LPL, leptin) under basal conditions (AHDJOUDJ et al., J Cell Biochem, 81, 23-38, 2001).
The activity of alkaline phosphatase, an early marker of osteoblast differentiation, was determined by a colorimetric assay as previously described (FROMIGUE et al., J Cell Biochem, 104, 620-8, 2008). ALP staining was performed using Sigma FAST kit according to the manufacturer's recommendations (Sigma). Cells were fixed in 75% ethanol, rinsed in PBS and incubated with the substrate buffer at 37° C.
Legend: The synthetic cyclic peptide CRRETAWAC promotes osteoblast marker genes expression in hMSCs. A) Human MSCs were treated with CRRETAWAC at the dose of 100 μg/ml for 24 h, RNAs were collected and osteoblast markers were determined by qRT-PCR analysis. Results, after correction to 18S content, are expressed as mean±SD of treated over control ratio. […] Infection with LV-ITGA5 is shown for comparison.

[3] = test system: LV-ITGA5-infected hMSCs; format: cell-based, human
Protocol: To this goal, proteins collected from hMSCs infected with LV-ITGA5 were analysed by western blot analysis.
Legend: Osteoblast differentiation by ITGA5 involves ERK1/2 signalling.

[4] = test system: ITGA5 in primary hMSCs; assay: ITGA5 mRNA expression by quantitative RT-PCR; format: cell-based, human; conditions: dexamethasone 10^-7 M, day 1 and 3, primary hMSCs
[5] = test system: ITGA5 in hMSCs; assay: ITGA5 protein level by Western blot; format: cell-based, human; conditions: dexamethasone 10^-7 M
Protocol: For Western blot analysis, cells lysates were prepared as previously described (FROMIGUE et al. Cell Death Differ. 13, 1845-56, 2006). Briefly, proteins (30 μg) were resolved on 4-12% SDS-PAGE and electrotransfered onto […] membranes (Millipore Corporation, Bedford, USA). Filters were incubated at RT for 2 h in 50 mM Tris/HCl (pH 7.4), 150 mM NaCl, 0.1% (v/v) Tween-20, 0.5% (w/v) bovine serum albumin (TBST/BSA), then overnight at 4° C. on a shaker with specific primary antibodies diluted at 1/1000 in TBST/BSA: monoclonal antibody against the housekeeping gene GAPDH (Abeam Cambridge, UK), and rabbit polyclonal antibody directed against ITGA5 was Santa Cruz Biotechnology (Santa Cruz, Calif., USA). Membranes were washed twice with TBST and incubated for 2 hours with appropriate HRP-conjugated secondary antibody (1/20,000 in TBST/BSA). After final washes, the signals were visualized with enhanced chemiluminescence western blotting detection reagent (ECL, Amersham Biosciences, Piscataway, N.J., USA) and autoradiographic film (X-OMAT-AR, Eastman Kodak Company, Rochester, N.Y., USA). Densitometric analysis using ImageQuant software was performed following digital scanning (Agfa).

## CRRETAWAC (also: cyclic)
[1]
  expression of osteoblast markers (mRNA): greatly increased
[2]
  ALP activity (staining): increased

## N#CC(=C(/N)Sc1ccccc1N)/C(C#N)=C(\N)Sc1ccccc1N [U0126]
[3]
  increased expression of ALP induced by ITGA5 overexpression: blunted
  increased expression of Col1A1 induced by ITGA5 overexpression: blunted
  increased expression of Runx2 induced by ITGA5 overexpression: blunted

## C[C@@H]1C[C@H]2[C@@H]3CCC4=CC(=O)C=C[C@]4(C)[C@@]3(F)[C@@H](O)C[C@]2(C)[C@@]1(O)C(=O)CO [dexamethasone]
[4]
  increase of ITGA5 expression (mRNA), treated over control: 2-3 fold
[5]
  increase of ITGA5 protein levels, treated over control: about 1.5 fold
